Source: PMC2649998 (Journal of pharmaceutical sciences, 2009)

Assays:
[1] = cited from earlier work
[2] = system: dogs; settings: in dogs; cited from earlier work
[3] = system: PC-3 human prostate cells; test: in vitro cytotoxicity, resazurin dye, 72 h; type: cell-based; settings: Prostate cell, read-out: PC-3 IC50
[4] = type: physicochemical; settings: 0.3 mM PEO-b-PDLLA, 10% w/w drug, dialysis in ddH2O, 37 °C, pH 7.4
[5] = type: physicochemical
[6] = system: MCF-7; settings: read-out: IC50 for MCF-7; reported by the National Cancer Institute; cited from earlier work
[7] = system: PC-3; settings: read-out: IC50 for PC-3; reported by the National Cancer Institute; cited from earlier work
[8] = system: MCF-7 human breast cancer cells; test: in vitro cytotoxicity, resazurin dye, 72 h; type: cell-based; settings: MCF7, 72 h, read-out: MCF-7 IC50

Which results are given for C=CCNC1=C2C[C@@H](C)C[C@H](OC)[C@H](O)[C@@H](C)/C=C(\C)[C@H](OC(N)=O)[C@@H](OC)/C=C\C=C(/C)C(=O)NC(=CC1=O)C2=O [17-AAG, 17-allylamino-17-demethoxygeldanamycin]?
aqueous solubility [1]: ca. 0.01 mg/mL; maximum tolerated dose [2]: 100–200 mg/m^2/day; IC50 [3]: 74 ± 14 nM; release half-life [4]: similar; 17-AAG : PEO-b-PDLLA ([5]; 0.3 mM PEO-b-PDLLA micelle solution): 0.47 ± 0.068 mol:mol; Loading efficiency ([5]; 17-AAG loaded 1.4% divided by loading attempted 10% w/w): 14 ± 2.0%; increase in solubility over 17-AAG alone ([5]; in PEO-b-PDLLA (12:6 kDa) micelles versus ca. 10 μg/mL): ca. 150 fold; 17-AAG loaded ([5]; weight 17-AAG solubilized versus total weight of carrier (17-AAG and PEO-b-PDLLA), 0.3 mM PEO-b-PDLLA): 0.014 ± 0.0020 mg/mg; IC50 [6]: 12.6 nM; IC50 [7]: 50.1 nM; IC50 [8]: 22 ± 14 nM

With CO[C@H]1/C=C\C=C(/C)C(=O)NC2=CC(=O)C(NCCN(C)C)=C(C[C@@H](C)C[C@H](OC)[C@H](O)[C@@H](C)/C=C(\C)[C@@H]1OC(N)=O)C2=O [17-DMAG, 17-dimethylaminoethylamino-17-demethoxygeldanamycin] as the compound, how does the maximum tolerated dose [2] read?
Its maximum tolerated dose is 8 mg/m^2/day.
